Values of other authors as cited in the CATMoS acute toxicity set (Mansouri et al. 2021).
“And” between values parts separate entries of the source, which are not always exact repeats. Equal entries are not always repeated.

test: rat acute oral toxicity; details: in vivo

Compound	LD50
CC(C)(C)CC(C)(C)c1ccc(OCCOS(=O)(=O)O)cc1	27000 mg/kg
CN1C(C(=O)Nc2ccccn2)=C(O)c2sccc2S1(=O)=O	79 mg/kg
COP(=S)(OC)SCSc1ccc(Cl)c(Cl)c1	220 mg/kg
COP(=S)(OC)SCn1nc(Br)ccc1=O	3.75 mg/kg
COCC=O	2330 mg/kg
CCN(CC)CCNC(=O)C(C)(C)Oc1ccc(Cl)cc1	300 mg/kg
CC(C)(C)NCCO	1620 mg/kg
Cc1cc(Cl)ccc1NC=O	564 mg/kg
Cc1ncc(CO)c(C=O)c1O	2150 mg/kg
Nc1cccc(C(F)(F)F)c1	480 mg/kg
CN(C)/N=N/c1ccc(C(N)=O)cc1	54 mg/kg
BrC(Br)C(Br)Br	1200 mg/kg
Clc1sc(Cl)c(Cl)c1Cl	70 mg/kg
CCCCCCc1ccc(C)cc1O	2300 mg/kg
CC1(C)Cc2cccc(OC(=O)NCSc3ccc(Cl)cc3)c2O1	25 mg/kg
CC(c1ccccc1)c1ccc(O)cc1O (stereo not given)	500 mg/kg
CC(C(=O)O)c1ccc(N2CC3=C(CC=CC3)C2=O)cc1 (stereo not given)	328 mg/kg
O=C(CF)Nc1ccc(-c2ccccc2)cc1	10 mg/kg
Cn1c2c(c3cc(N)ccc31)CCCC2	229 mg/kg
O=[N+]([O-])c1cc(Cl)cc2[nH]c(C(F)(F)F)nc12	2.78 mg/kg
CCN(CC)CCOC(=O)C1(C2CCCCC2)CCCCC1	1290 mg/kg
C[N+]1(CCF)[C@@H]2CC[C@H]1C[C@@H](OC(=O)C(O)(c1ccccc1)c1ccccc1)C2 (single isomer, unassigned)	740 mg/kg
C=CC1OCCO1	84.7 mg/kg
O=C(Nc1ccc(Cl)cc1)c1cc(Cl)cc(-c2ccc(Cl)cc2)c1O	2810 mg/kg

Compound	LD50
CCCCCC(C)(O)CC (stereo not given)	3400 mg/kg
Cc1onc(-c2c(F)cccc2Cl)c1C(=O)N[C@@H]1C(=O)N2[C@@H]1SC(C)(C)[C@@H]2C(=O)O	11000 mg/kg
COc1cc(C(=O)N(C)C)nn1-c1cccc(Cl)c1	790 mg/kg
Cc1cc(OCC(=O)N[C@@H]2C(=O)N3[C@@H]2SC(C)(C)[C@@H]3C(=O)O)ccc1Cl	4000 mg/kg
CC/C=C1/OC(=O)c2ccccc21	1650 mg/kg
CCN(CC)N=Nc1ccccc1	520 mg/kg
CC(Oc1c(Cl)cccc1Cl)C1=NCCN1 (stereo not given)	70 mg/kg
CCC(=O)O[C@@H]1CC(=O)O[C@H](C)C/C=C/C=C/[C@H](O)[C@H](C)C[C@H](CC=O)[C@H](O[C@@H]2O[C@H](C)[C@@H](O[C@H]3C[C@@](C)(O)[C@@H](OC(=O)CC)[C@H](C)O3)[C@H](N(C)C)[C@H]2O)[C@H]1OC	9600 mg/kg
CCOC(=O)[C@H](CCc1ccccc1)N[C@@H](C)C(=O)N1Cc2ccccc2C[C@H]1C(=O)O	3540 mg/kg
CCN(CC)C(=O)c1ccccc1C	1210 mg/kg
O=C(O)CC(O)c1ccc(-c2ccc(Cl)cc2)o1 (stereo not given)	2460 mg/kg
C1=CC=CCC=C1	57 mg/kg
NS(=O)(=O)c1cc(-c2nnn[nH]2)c(NCc2cccs2)cc1Cl	2540 mg/kg
CCN(CC)CCNC(=O)c1ccc(NS(C)(=O)=O)cc1	3200 mg/kg
CSC(=N)N	800 mg/kg
C=CC(=O)OCCOCCOC(=O)C=C	250 mg/kg
CCS(=O)CC	5650 mg/kg
O=C1OC2(c3ccc(O)cc3Oc3cc(O)ccc32)c2ccccc21	6720 mg/kg
Cn1c(=O)c2c(ncn2CCNCc2cccnc2)n(C)c1=O	3700 mg/kg
CC(=O)N(O)CCCCCNC(=O)CCC(=O)N(O)CCCCCNC(=O)CCC(=O)N(O)CCCCCN	17300 mg/kg
CCCCOC(=O)C(Cl)(Cl)Oc1ccccc1	1500 mg/kg
Fc1ccc(-c2cccs2)cc1	500 mg/kg
CC(C)(C)c1ccc2cc(C(C)(C)C)c(S(=O)(=O)O)cc2c1	4240 mg/kg
CCN(CC)c1ccccc1	782 mg/kg

Compound	LD50
CCCCCCCCC=CCCCCCCCC(=O)OCC1CO1 (stereo not given)	3520 mg/kg
CC(Cl)COP(=O)(OCC(C)Cl)Oc1ccc([N+](=O)[O-])cc1 (stereo not given)	173 mg/kg
COc1ccccc1OCCOC(=O)c1ccccc1OC(C)=O	2930 mg/kg
CC(C(=O)OCCOCCO)c1ccc2c(c1)C(=O)Cc1ccccc1O2 (stereo not given)	260 mg/kg
CN(C)[C@@H]1C(O)=C(C(N)=O)C(=O)[C@@]2(O)C(O)=C3C(=O)c4c(O)cccc4[C@@](C)(O)[C@H]3[C@H](O)[C@@H]12	4800 mg/kg
Cc1c(Br)cc2[nH]c(C(F)(F)F)nc2c1[N+](=O)[O-]	83 mg/kg
O=c1c2ccccc2n(-c2cccc(C(F)(F)F)c2)c(=O)n1CCO	810 mg/kg
Cc1cccc(CN2CCN(C(c3ccccc3)c3ccc(Cl)cc3)CC2)c1 (stereo not given)	1750 mg/kg
Nc1cc(S(=O)(=O)O)cc2c1C(=O)C(=NNc1ccc(NN=C3C(=O)c4c(O)cc(S(=O)(=O)O)cc4C=C3S(=O)(=O)O)cc1)C(S(=O)(=O)O)=C2	12000 mg/kg
O=C1CCC(=O)N1c1cc(Cl)cc(Cl)c1	890 mg/kg
O=c1[nH]c2c(Cl)c(Cl)cc(Cl)c2o1	500 mg/kg
O=C(O)[C@H](O)[C@@H](O)[C@H](O)[C@H](O)CO	10400 mg/kg
Cc1ncc(CSSCc2cnc(C)c(O)c2C)c(C)c1O	2150 mg/kg
Oc1c(Cl)c(Cl)cc(Cl)c1Cc1c(Cl)cc(Cl)c(Cl)c1O	100 mg/kg
COc1cc2c(cc1OC)C(CCc1ccc(Cl)cc1)N(C)CC2 (stereo not given)	400 mg/kg
CN1C(=O)CC(=O)N(c2ccccc2)c2cc(Cl)ccc21	6000 mg/kg
CCCCCCCCCCOCCCN(C(=O)CC(C(=O)O)S(=O)(=O)O)C(CC(=O)OCC)C(=O)OCC (stereo not given)	16200 mg/kg
CC1C(=NOC(=O)N(C)SC(Cl)(Cl)Cl)SCC(=O)N1C (stereo not given)	3.54 mg/kg
Cc1cc(Br)ccc1-n1c(C)nc2ccccc2c1=O	240 mg/kg
O=C(O)Cc1ccc(OCC2CC2)c(Cl)c1	895 mg/kg
CCOP(=S)(N=C1SCCS1)OCC	14 mg/kg
Cc1ccc(N)cc1Cl	655 mg/kg
C[C@@H](N)[C@@H](O)c1ccccc1	1490 mg/kg
COc1cc(OC)n2nc(N)nc2n1	1030 mg/kg

Compound	LD50
CCCCCCCCCCF	5 mg/kg
O=NN1CCSC1	1950 mg/kg
CN1CCC2(C)c3cc(OC(=O)NCCCCCCCCN4CCSCC4)ccc3N(C)C12 (stereo not given)	23.8 mg/kg
Cn1cc(C(O)=Nc2cccc3c2C2CCC3C2=C(Cl)Cl)c(C(F)F)n1 (stereo not given)	55 mg/kg
CC(C)=CC=O	690 mg/kg
Cc1ccccc1C(=O)NC1=NCCS1	912 mg/kg
O=C(CI)NC(=O)CI	650 mg/kg
CC1=CCC(C(C)C)=CC1	3650 mg/kg
CCOP(=S)(OCC)SC1CCSC1 (stereo not given)	20 mg/kg
O=C1OC(OC(=O)c2cccnc2Nc2cccc(C(F)(F)F)c2)c2ccccc21 (stereo not given)	12000 mg/kg
CSCCC(O)C#N (stereo not given)	48 mg/kg
C#CC(C)(C)NC(=O)C=Cc1cc(OC)c(OC)c(OC)c1	570 mg/kg
Nc1ccc(S(=O)(=O)O)c2cccc(O)c12	6210 mg/kg
CCC[C@@H]1C[C@@H](C(=O)N[C@@H]([C@H]2O[C@H](SC)[C@H](O)[C@@H](O)[C@H]2O)[C@H](C)Cl)N(C)C1	2620 mg/kg and 2190 mg/kg
O=C(O[C@H]1C[C@H]2CC[C@@H](C1)[N+]21CCCC1)C(O)(c1ccccc1)c1ccccc1	1510 mg/kg
O=C(COc1ccc(Cc2ccc(Cl)cc2)cc1)OCc1cccnc1	2700 mg/kg
FC(F)(F)c1nc2c(Cl)ccc(Cl)c2[nH]1	2.61 mg/kg
Nc1nc2cc(Cl)c(Br)cc2o1	140 mg/kg
CCCCC(CC)COP(=O)(OCC(CC)CCCC)OCC(CC)CCCC (stereo not given)	37000 mg/kg
CC[C@H]1C[C@H]2[C@@H]3CCC4=CC(=O)CC[C@@H]4[C@H]3CC[C@]2(C)[C@H]1O	12100 mg/kg
CCCc1c(OCc2cccn3c(=O)c(CC(=O)O)cnc23)ccc(C(C)=O)c1O	4000 mg/kg
Nc1nc2ccccc2o1	600 mg/kg
C=CCN(CC=C)N=O	800 mg/kg
